Patent US5795977A, “Water soluble adenosine kinase inhibitors” (Metabasis Therapeutics, Inc., priority 1996, dated 1998)
Where a name gives a salt, the structure may show the parent alone. Read-outs that look alike come from different tables or passages of the source.

Experiments:
[1] = biological target: partially purified pig heart adenosine kinase or recombinant human adenosine kinase; experiment: AK inhibition; format: biochemical; conditions: 0.5 μM [U-14C] adenosine, pH 7.0, 37° C., 20 minutes
Protocol: Adenosine kinase activity was measured essentially as described by Yamada et al. Biochim. Biophys. Acta 660, 36-43 (1988) with a few minor modifications. Assay mixtures contained 50 mM TRIS-maleate buffer, pH 7.0, 0.1% BSA, 1 mM ATP 1 mM MgCl2, 0.5 μM [U-^14 C] adenosine (400-600 mCi/mmol) and varying duplicate concentrations of inhibitor. […] The amount of ^14 C-AMP was quantified by scintillation counting.

[2] = tested on: male SA rats (maximal electroshock seizures); experiment: Anticonvulsant activity, maximal electroshock seizures (MES); format: in vivo; conditions: rat, po, fasted; >> = no activity at the stated dose
Protocol: The anticonvulsant activity of the tested compounds was evaluated in male SA rats (100-150g, Simonsen) using the maximal electroshock (MES) model described in Swinyard et al., Antiepileptic Drugs, 3d Ed. at 85-102 (Levy, et al., eds.), NY: Raven Press (1989). The rats were maintained on a 12/12 light/dark cycle in temperature controlled facilities with free access to food and water. For p.o. administration, the animals are fasted overnight, prior to the experiment. One to two hours prior to seizure testing, the animals were injected interperitoneally (ip) or orally (per os, po) with one of various doses of test compound dissolved in DMSO or PEG 400.
This endpoint was expressed as the percentage of animals in which the response was inhibited.

Female SA rats = experiment: Liver toxicity assay; format: in vivo; conditions: rat, i.v. infusion, total dose 75 μmole/kg, serum
Protocol: Female SA rats (150-200 g) are anesthetized with halothane and cannulated via the internal jugular vein. The animals are allowed to recover for 3 days. At this time, 37.5 μmole/kg of an AK inhibitor is dissolved in 50% PEG400 and infused through the jugular catheter over 20 minutes. Twelve hours later, an additional 37.5 μmole/kg is infused over 20 minutes (total dose =75 μmole/kg). […] Liver enzymes (serum glutamic-oxaloacetic transaminase (SGOT), serum glutamic-pyruvic transaminase (SGPT), alkaline phosphatase) and total bilirubin in the serum samples are determined by a commercial laboratory.

Rats (carrageenan paw) = experiment: Anti-inflammatory activity, carrageenan paw swelling; format: in vivo; conditions: rat, 10 mg/kg, swelling after 3 hours; for Carrageenan Paw (% inhibition) po: oral gavage
Protocol: Carrageenan (Type λ) was suspended in sterile PBS at 1% (w/v), autoclaved for 30 minutes, and stored at room temperature. Rats were pretreated with vehicle or AK inhibitor (10 mg/kg) by oral gavage or i.p. administration and the volume of the left hind paw was measured using a water displacement plethysmometer (Stoelting Co., Wood Dale, Ill.). One hour after oral treatment or 30 minutes after i.p. treatment, the rats were briefly anesthetized, and 0.1 ml of the carrageenan solution was injected subcutaneously into the planar surface of the left hind paw. The ensuing paw swelling was measured by plethysmometry after 3 hours. The paw volume in millileters was […]. Data are presented in Table 2 as the percent inhibition of paw swelling in AK inhibitor treated animals, compared to vehicle treated control animals.

mice [3] = experiment: HPLC analysis of plasma, metabolism in mice; format: in vivo, mouse; conditions: oral, 10 mg/kg
rat cardiomyocytes = conditions: inhibition of adenosine deaminase alone; cited from earlier work
[4] = tested on: isolated guinea pig hearts; conditions: in the absence of ADA inhibition; cited from earlier work
isolated rat hearts = conditions: alone, cited from earlier work
ischemic cerebral injury = conditions: in vivo; cited from earlier work
mice [5] = conditions: cited from earlier work

Structure (SMILES) | IC50 [1] [nM] | SGPT (Female SA rats) [IU/L] | Carrageenan Paw (% inhibition) ip (Rats (carrageenan paw)) [%] | Carrageenan Paw (% inhibition) po (Rats (carrageenan paw)) [%] | further results
C[C@H]1O[C@@H](n2cc(-c3ccccc3)c3c(Nc4ccc(CN(C)C)cc4)ncnc32)[C@H](O)[C@@H]1O [Compound 1, 4-N-(4-(N,N-Dimethylaminomethyl)phenyl)amino-5-phenyl-7-(5-deoxy-β-D-ribofuranosyl)pyrrolo[2,3-d]pyrimidine] | – | 44 | 26.0 | – | Alkaline Phosphatase (Female SA rats): 131 IU/L; SGOT (Female SA rats): 75 IU/L
CCN(CC)CCNCCc1ccc(Nc2ncnc3c2c(-c2ccccc2)cn3[C@@H]2O[C@H](C)[C@@H](O)[C@H]2O)cc1 [Compound 5, 4-N-[4-(2-(2-N,N-diethylaminoethyleneamino)ethyl)phenyl]amino-5-phenyl-7-(5-deoxy-β-D-ribofuranosyl)pyrrolo[2,3-d]pyrimidine] | 1 | – | 0.0 | 4.1 | ED50 [2]: > 10 mg/kg
OC[C@H]1O[C@@H](n2cnc3c2N=CNC[C@H]3O)C[C@@H]1O [2'-deoxycoformycin] | – | – | – | – | adenosine release (rat cardiomyocytes): no effect on adenosine release
NC[C@H]1O[C@@H](n2cnc3c(N)ncnc32)[C@H](O)[C@@H]1O [5'-amino-5'-deoxyadenosine] | – | – | – | – | effect on adenosine release [4]: not apparent
NC[C@H]1O[C@@H](n2nc(Br)c3c(N)ncnc32)[C@H](O)[C@@H]1O [REF.B, 4amino-1-(5-amino-5-deoxy-1-D-ribofuranosyl)-3-bromopyrazolo[3,4d]pyrimidne HCL, reference compound] | – | 41 | – | – | SGOT (Female SA rats): 100 IU/L; Total Bilirubin (Female SA rats): 0.30 mg/dL
CCN(CC)CCc1ccc(Nc2ncnc3c2c(-c2ccccc2)cn3[C@@H]2O[C@H](C)[C@@H](O)[C@H]2O)cc1 [Compound 6, 4-N-[4-(2-N,N-diethylaminoethyl)phenyl]amino-5-phenyl-7-(5-deoxy-β-D-ribofuranosyl)pyrrolo[2,3-d]pyrimidine] | 1 | 110 | 81.5 | 42.6 | Alkaline Phosphatase (Female SA rats): 104 IU/L; SGOT (Female SA rats): 306 IU/L; Total Bilirubin (Female SA rats): 0.43 mg/dL
Nc1ncnc2c1c(I)cn2[C@@H]1O[C@H](CO)[C@@H](O)[C@H]1O [5-iodotubercidin] | – | – | – | – | perfusate adenosine concentration (isolated rat hearts; hypoxic, anoxic or ischemic conditions): no increase in perfusate adenosine concentration; perfusate adenosine concentration (isolated rat hearts; normoxic conditions): no increase in perfusate adenosine concentration; protection against ischemic cerebral injury (ischemic cerebral injury): does not protect against ischemic cerebral injury; flaccidity (skeletal muscle relaxation) (mice [5]): pronounced general flaccidity
C[C@H]1O[C@@H](n2cc(-c3ccccc3)c3c(Nc4ccc(CCO)cc4)ncnc32)[C@H](O)[C@@H]1O [Compound 2, 4-N-(4-(2-Hydroxyethyl)phenyl)amino-5-phenyl-7-(5-deoxy-β-D-ribofuranosyl)pyrrolo[2,3-d]pyrimidine] | 1 | – | 13.2 | 1.9 | –
C[C@H]1O[C@@H](n2cc(I)c3c(N)ncnc32)[C@H](O)[C@@H]1O [REF.A, reference compound] | – | 76 | – | – | Total Bilirubin (Female SA rats): 0.76 mg/dL; flaccidity (skeletal muscle relaxation) (mice [5]): pronounced general flaccidity

Second part, led by results:

IC50 [1] [nM] | Structure (SMILES) | SGPT (Female SA rats) [IU/L] | Carrageenan Paw (% inhibition) ip (Rats (carrageenan paw)) [%] | Carrageenan Paw (% inhibition) po (Rats (carrageenan paw)) [%] | further results
67 | C[C@H]1O[C@@H](n2cc(-c3ccccc3)c3c(NCc4ccncc4)ncnc32)[C@H](O)[C@@H]1O [Compound 49, 4-N-(4-pyridylmethyl)amino-5-phenyl-7-(5-deoxy-1-β-D-ribofuranosyl)-pyrrolo[2,3-d]pyrimidine] | – | – | – | ED50 [2]: > 40 mg/kg
0.3 | OC[C@@H]1O[C@@H](n2cc(-c3ccccc3)c3c(Nc4ccc(CCN5CCNCC5)cc4)ncnc32)[C@H](O)[C@@H]1O [Compound 12, 4-N-[4-(1-piperazinoethyl)phenyl]amino-5-phenyl-7-α-L-lyxofuranosylpyrrolo[2,3-d]pyrimidine] | 76 | 58.8 | 51.0 | Alkaline Phosphatase (Female SA rats): 106 IU/L; SGOT (Female SA rats): 211 IU/L; Total Bilirubin (Female SA rats): 0.41 mg/dL
10000 | C[C@H]1O[C@@H](n2cc(I)c3c(NCCc4ccccn4)ncnc32)[C@H](O)[C@@H]1O [Compound 43, 4-N-(2-(2-pyridylethyl)amino)-5-iodo-7-(5-deoxy-1-β-D-ribofuranosyl)pyrrolo[2,3-d]pyrimidine] | – | – | – | metabolism to a potent AK inhibitor, HPLC analysis of plasma (mice [3]): undergo metabolism in mice after oral administratio
0.35 | C[C@H]1O[C@@H](n2cc(-c3ccccc3)c3c(Nc4ccc(OCC(=O)N5CCNCC5)cc4)ncnc32)[C@H](O)[C@@H]1O [Compound 196, 4-N-[4-(4-piperazinocarbonylmethyloxy)phenyl]amino-5-phenyl-7-(5-deoxy-1-β-D-ribofuranosyl)pyrrolo(2,3-d)pyrimidine] | – | 11.8 | 0.0 | –
7 | C[C@H]1O[C@@H](n2cc(-c3cccc(NC(=N)N)c3)c3c(Nc4ccc(F)cc4)ncnc32)[C@H](O)[C@@H]1O [Compound 206, 4-N-(4-fluorophenyl)amino-5-(3-guanidinophenyl)-7-(5-deoxy-1-β-D-ribofuranosyl)pyrrolo[2,3-d]pyrimidine] | – | 10.1 | 23.5 | –
1 | C[C@H]1O[C@@H](n2cc(-c3ccccc3)c3c(Nc4ccc(CCNC(=N)N)cc4)ncnc32)[C@H](O)[C@@H]1O [Compound 267, 4-N-[4-(2-Guanidinoethyl)phenyl]amino-5-phenyl-7-(5-deoxy-1-β-D-ribofuranosyl)pyrrolo[2,3-d]pyrimidine hydrochloride] | – | 52.3 | 15.4 | –
55 | C[C@H]1O[C@@H](n2cc(-c3cccnc3)c3c(Nc4ccccc4)ncnc32)[C@H](O)[C@@H]1O [Compound 47, 4-N-Phenylamino-5-(3-pyridino)-7-(5-deoxy-1-β-D-ribofuranosyl) pyrrolo[2,3-d]pyrimidine] | – | 0.0 | 9.8 | –
